The record followed here is PMC11129182, “Development of Inhibitors, Probes, and PROTAC Provides a Complete Toolbox to Study PARK7 in the Living Cell” (Journal of Medicinal Chemistry, 2024).

In test [1] the target is T1, PARK7 (Homo sapiens, UniProt Q99497).
T1 sequence (Q99497 1-189): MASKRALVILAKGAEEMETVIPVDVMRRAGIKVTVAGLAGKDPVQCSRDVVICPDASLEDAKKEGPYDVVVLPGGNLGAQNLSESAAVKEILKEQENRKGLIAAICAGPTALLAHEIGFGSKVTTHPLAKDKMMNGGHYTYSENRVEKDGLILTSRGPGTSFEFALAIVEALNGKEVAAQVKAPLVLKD
Kind of test: High-throughput screen of the crude compound library, PARK7 fluorescence polarization (FP) assay with FP reagent JYQ-107. Conditions: for inhibition at 1.25 µM: read-out: HTS FP assay %Inhibition (1.25 µM). It is filed as biochemical.

Test [2] concerns the target T1, PARK7. Kind of test: Hit validation and pure-compound testing in the PARK7 FP assay with JYQ-107. It is filed as biochemical. Conditions: for inhibition at 0.25 µM: read-out: % Inhibition 0.25 µM; for inhibition at 0.5 µM: read-out: % Inhibition 0.5 µM.
Where [3] appears, read: 1.25 µM, crude compound library.
Where [4] appears, read: 1.25 µM, crude compound library, FP reagent JYQ-107.

Like-named read-outs stand apart in the source and are kept apart here.

A word on the inhibition: it is the relative decrease from the control value, in per cent. For the compound `N#CN1CC[C@@H](C(=O)Nc2nc3c(s2)CN(C(=O)c2cccc(S(=O)(=O)NCc4cccs4)c2)CC3)C1` [Compound 11], the inhibition at 1.25 µM at PARK7 [1] (setting [3]) was found to be 90%. On PARK7 [2] (crude compounds, 0.25 µM), the inhibition at 0.25 µM was 49.3%. On PARK7 [2] (crude compounds), the inhibition at 0.5 µM was 77.9%. The compound further displayed an inhibition at 1 µM against PARK7 [2] (crude compounds, 1 µM) of 93.6%.
Take `N#CN1CC[C@@H](C(=O)Nc2nc3c(s2)CN(C(=O)c2cc(-n4ccnc4)ccn2)CC3)C1` [Compound 22]: the inhibition at 1.25 µM at PARK7 [1] (setting [3]) was 90.7%. Also, the inhibition at 0.25 µM on PARK7 [2] (crude compounds, 0.25 µM) worked out at 52.2%. Moreover, the inhibition at 0.5 µM on PARK7 [2] (crude compounds) stood at 81%. 1 µM produced 96% inhibition against PARK7 [2] (crude compounds, 1 µM).
Taken in the same sequence, the figures for `N#CN1CC[C@@H](C(=O)Nc2nc3c(s2)CN(C(=O)c2cn(C4CCC4)nn2)CC3)C1` [Compound 30] were 89.2%, 52.3%, 75.7% and 93.6%.
Take `N#CN1CC[C@@H](C(=O)Nc2nc3c(s2)CN(C(=O)c2cccc(S(=O)(=O)NC4CC4)c2)CC3)C1` [Compound 59, (R)-1-Cyano-N-(5-(3-(N-cyclopropylsulfamoyl)benzoyl)-4,5,6,7-tetrahydrothiazolo[5,4-c]pyridin-2-yl)pyrrolidine-3-carboxamide]: the inhibition at 1.25 µM on PARK7 [1] (setting [3]) was 89.7%. In addition, the inhibition at 0.25 µM at PARK7 [2] (crude compounds, 0.25 µM) is 63.1%; on PARK7 [2] (pure compounds, 0.25 µM), 74.8%. Also, the inhibition at 0.5 µM on PARK7 [2] (crude compounds) stood at 84.4%. Besides, the inhibition at 1 µM is 97.5% against PARK7 [2] (crude compounds, 1 µM) and 93.6% against PARK7 [2] (pure compounds, 1 µM).
For the compound `CC(=O)CCC(=O)N1CCc2nc(NC(=O)[C@@H]3CCN(C#N)C3)sc2C1` [compound 443], on PARK7 [1] (setting [4]), the inhibition at 1.25 µM was 72.8%.
Still for that read-out and setting: the same measure for `N#CN1CC[C@@H](C(=O)Nc2nc3c(s2)CN(C(=O)c2cccc(B(O)O)c2)CC3)C1` [compound 444]: 68.5%.
Same read-out and setting: the figure for `N#CN1CC[C@@H](C(=O)Nc2nc3c(s2)CN(C(=O)CCc2cccnc2)CC3)C1` [compound 445] is 62.7%; for `N#CN1CC[C@@H](C(=O)Nc2nc3c(s2)CN(C(=O)c2ccc(F)c(F)c2)CC3)C1` [compound 446] it is 74.4%; for `CC(C)(C)OC(=O)NC1(C(=O)N2CCc3nc(NC(=O)[C@@H]4CCN(C#N)C4)sc3C2)CC1` [compound 447] it is 68.7%.
Still for that read-out and setting: the same measure for `N#CN1CC[C@@H](C(=O)Nc2nc3c(s2)CN(C(=O)c2ccc(CNC(=O)OCC4c5ccccc5-c5ccccc54)cc2)CC3)C1` [compound 448]: 63.9%; for `CN(C)c1ccc(C(=O)N2CCc3nc(NC(=O)[C@@H]4CCN(C#N)C4)sc3C2)cc1` [compound 449]: 82.9%.
As for `CC(C)(C)OC(=O)N1C[C@@H](O)C[C@@H]1C(=O)N1CCc2nc(NC(=O)[C@@H]3CCN(C#N)C3)sc2C1` [compound 450], on PARK7 [1] (setting [4]), the inhibition at 1.25 µM turned out to be 68.1%.
The same measure, in the same setting: the same measure for `N#CN1CC[C@@H](C(=O)Nc2nc3c(s2)CN(C(=O)c2ccc(N4CCCC4)cc2F)CC3)C1` [compound 451]: 82.6%; for `COc1ccccc1-c1cc(C(=O)N2CCc3nc(NC(=O)[C@@H]4CCN(C#N)C4)sc3C2)n[nH]1` [compound 452]: 84.6%.
Regarding `N#CN1CC[C@@H](C(=O)Nc2nc3c(s2)CN(C(=O)c2cc(-c4cccc(Cl)c4)no2)CC3)C1` [compound 453], at PARK7 [1] (setting [4]), the inhibition at 1.25 µM came to 52.8%.
On the same count and under the same terms, the figure for `CC(C)(C)OC(=O)N1CC[C@H](C(=O)N2CCc3nc(NC(=O)[C@@H]4CCN(C#N)C4)sc3C2)C1` [compound 454] is 73.8%; for `N#CN1CC[C@@H](C(=O)Nc2nc3c(s2)CN(C(=O)c2ccc4cc5ccccc5cc4c2)CC3)C1` [compound 455] it is 79.5%.
On the same count and under the same terms, the figure for `N#CN1CC[C@@H](C(=O)Nc2nc3c(s2)CN(C(=O)c2cccc4cc5ccccc5cc24)CC3)C1` [compound 456] is 80.6%; for `N#CCC(=O)N1CCc2nc(NC(=O)[C@@H]3CCN(C#N)C3)sc2C1` [compound 457] it is 49.3%.
On to `CC(=O)Oc1ccccc1C(=O)N1CCc2nc(NC(=O)[C@@H]3CCN(C#N)C3)sc2C1` [compound 458], for which the inhibition at 1.25 µM at PARK7 [1] (setting [4]) was determined as 67.9%.
The same measure, in the same setting: the same measure for `N#CN1CC[C@@H](C(=O)Nc2nc3c(s2)CN(C(=O)CCc2ccccc2)CC3)C1` [compound 459]: 72.7%; for `N#CN1CC[C@@H](C(=O)Nc2nc3c(s2)CN(C(=O)C(Cl)(Cl)Cl)CC3)C1` [compound 460]: 6.9%; for `N#CN1CC[C@@H](C(=O)Nc2nc3c(s2)CN(C(=O)CN2CCOCC2)CC3)C1` [compound 461]: 72.7%.
As to `N#CN1CC[C@@H](C(=O)Nc2nc3c(s2)CN(C(=O)C2CC(=O)NC(=O)N2)CC3)C1` (some centres unmarked) [compound 462], the inhibition at 1.25 µM on PARK7 [1] (setting [4]) was found to be 60.1%.
Still for that read-out and setting: the same measure for `CN1CCN(CC(=O)N2CCc3nc(NC(=O)[C@@H]4CCN(C#N)C4)sc3C2)CC1` [compound 463]: 67.3%; for `N#CN1CC[C@@H](C(=O)Nc2nc3c(s2)CN(C(=O)C2CC2)CC3)C1` [compound 464]: 78.9%; for `N#CN1CC[C@@H](C(=O)Nc2nc3c(s2)CN(C(=O)CC2C(=O)Nc4ccccc42)CC3)C1` (some centres unmarked) [compound 465]: 81.8%.
The same measure, in the same setting: the same measure for `CC(=O)C(=O)N1CCc2nc(NC(=O)[C@@H]3CCN(C#N)C3)sc2C1` [compound 466]: 58.5%; for `COCC(=O)N1CCc2nc(NC(=O)[C@@H]3CCN(C#N)C3)sc2C1` [compound 467]: 67.9%.
As a reminder, the % Inhibition is the percentage by which the read-out fell short of the control. Turning to `N#CN1CC[C@@H](C(=O)Nc2nc3c(s2)CN(C(=O)c2cnccn2)CC3)C1` [compound 468], the “HTS FP assay %Inhibition (1.25 µM)” value on PARK7 [1] (setting [4]) was found to be 76.5%. Besides, the “% Inhibition” value on PARK7 [1] (HTS of crude compound library, sheet "SMILES+%Inh HTS") is 76.5%.
For the compound `Cc1ncc(C(=O)N2CCc3nc(NC(=O)[C@@H]4CCN(C#N)C4)sc3C2)s1` [compound 469], the inhibition at 1.25 µM on PARK7 [1] (setting [4]) came out at 76%.
Same read-out and setting: the figure for `N#CN1CC[C@@H](C(=O)Nc2nc3c(s2)CN(C(=O)c2ccc4c(c2)OCO4)CC3)C1` [compound 470] is 78.4%.
Consider `N#CN1CC[C@@H](C(=O)Nc2nc3c(s2)CN(C(=O)c2ccc4c(c2)ncn4C2CCCCO2)CC3)C1` (some centres unmarked) [compound 471], for which the inhibition at 1.25 µM on PARK7 [1] (setting [4]) amounted to 80%.
Same read-out and setting: the figure for `CN1CCN(c2ccc(C(=O)N3CCc4nc(NC(=O)[C@@H]5CCN(C#N)C5)sc4C3)cc2)CC1` [compound 472] is 70.8%; for `N#CN1CC[C@@H](C(=O)Nc2nc3c(s2)CN(C(=O)c2ccc(N4CCOCC4)cc2)CC3)C1` [compound 473] it is 72.4%; for `CN1CCC(C(=O)N2CCc3nc(NC(=O)[C@@H]4CCN(C#N)C4)sc3C2)CC1` [compound 474] it is 72.5%.
`CC(=O)N1CCC(C(=O)N2CCc3nc(NC(=O)[C@@H]4CCN(C#N)C4)sc3C2)CC1` [compound 475]: at PARK7 [1] (setting [4]), the inhibition at 1.25 µM came to 68.5%.
For `N#CN1CC[C@@H](C(=O)Nc2nc3c(s2)CN(C(=O)C2CCN(c4ncccn4)CC2)CC3)C1` [compound 476], the inhibition at 1.25 µM on PARK7 [1] (setting [4]) is 70.3%.
For “(R)-1-Cyano-N-(5-(4-hydroxybenzoyl)-4,5,6,7-tetrahydrothiazolo[5,4-c]pyridin-2-yl)pyrrolidine-3-carboxamide [Compound 3]”, the “% Inhibition 0.25 µM” value on PARK7 [2] (pure compounds, 0.25 µM) was 58.4%. The “% Inhibition 1 µM” value at PARK7 [2] (pure compounds, 1 µM) is given as 90.1%. In addition, on PARK7 [2] (pure compounds, 0.25 and 1 μM), the “potency in FP assay compared to JYQ-88” value is “slight improvement in potency compared to JYQ-88”.
